pIC50: −log10 of the molar value. Read-outs that look alike come from different tables or passages of the source.
What was measured:
[1] = target: T1, Orai1/STIM1 (Homo sapiens, UniProt Q96D31); test: Fluorescence-based assay of store-operated calcium entry in Orai1/STIM1 stable cells; assay type: cell-based; conditions: HEK-293 cells stably expressing human STIM1 and Orai1, 50% inhibition of Peak-Basal fluo-4 signal; for pIC50: read-out: Orai1/STIM1 (IC50, μmol)
T1 construct: expressed in transfected cells; host or cells: HEK-293
Description: A. Fluorescence-based Assay of Store-Operated Calcium Entry in Orai1/STIM1 Stable Cells.
Cells stably expressing recombinant human STIM1 and Orai1 are generated by transfecting a human Orai1 expression plasmid (pcDNA3.1-Orai1-cmyc) into HEK-293 cells stably overexpressing human STIM1 (Roos et al. 2005 JCB 169(3): 435-445). Colonies of cells stably expressing both STIM1 and Orai1 proteins are selected and then subcloned by limiting dilution. Cells were cultured at 37° C./6% CO2 in complete medium with 10% FBS and appropriate selection markers.
The day prior to performing the assay Orai1/STIM1 stable cells are plated in 50 μL of complete medium at 90-95% confluence in a 384 well plate. Cells are grown at 37° C./6% CO2 overnight. On the day of the assay, 1.5 μM fluo-4-AM (Invitrogen) in complete medium is added to the cells, which are then incubated for 1 hour at RT. Cells are washed once in Ca^2+-free HBSS (Hank's buffered saline solution) and 35 μl of Ca^2+-free HBSS is added to each well. Test compounds are added to wells in a 10 μL Ca^2+-free HBSS solution, prepared at 4.5× the desired final concentration, and incubated for 30 minutes at RT. The initial baseline fluorescence signal is then measured with a FLIPR^384 (Molecular Devices) plate reader. Calcium entry is initiated by adding 5 μl of 10× CaCl2 (10 mM) in HBSS, and changes in cellular fluorescence are measured with the FLIPR^384 plate reader. In each well, the magnitude of the fluorescence signal as a result of calcium entry into the cell is determined by calculating the difference between the peak fluorescence signal measured after calcium addition and the initial baseline fluorescence signal (designated Peak-Basal). IC50 values are typically calculated as the concentration that inhibited 50% of the Peak-Basal signal (Table A).

[2] = tested on: RBL-2H3 cells; test: Fluorescence-based assay of store-operated calcium entry in RBL-2H3 cells; assay type: cell-based, rat; conditions: Rattus norvegicus, RBL-2H3, thapsigargin store depletion, 50% inhibition of Upslope, read-out: RBL-2H3 (IC50, μmol)
Description: B. Fluorescence-based Assay of Store-Operated Calcium Entry in RBL-2H3Cells.
RBL-2H3 cells are obtained from ATCC and maintained in complete medium with 10% FBS at 37° C./6% CO2.
The day prior to performing the assay, RBL-2H3 cells are plated in 50 μL of complete medium in a 384 well plate. Cells are grown at 37° C./6% CO2 overnight and grow to 50-60% confluence by the next day. On the assay day, 1.5 μM Fluo-4-AM dye (Invitrogen) in complete medium is added and incubated for 1 hour at RT. Cells are washed twice in Ca^2+-free HBSS buffer and 35 μL Ca^2+-free HBSS buffer is added to each well. 10 μL of a test compound prepared in a Ca^2+-free HBSS solution at 4.5× of the desired concentration is added to a well and incubated for 5 minutes at RT. 10 μL of thapsigargin prepared in a Ca^2+-free HBSS solution at 5.5× of the desired concentration (5.5 uM) is added to each well and incubated for an additional 25 minutes. The initial baseline fluorescence signal is measured with a FLIPR^384 (Molecular Devices) plate reader. 5 μL of 12× calcium in HBSS (12 mM) is added and changes in cellular fluorescence are measured with the FLIPR^384 plate reader. In each well, the change in the fluorescent signal as a function of time due to calcium entry into the cell is determined by calculating the difference between the fluorescent signal measured 7 seconds after calcium addition and the initial baseline fluorescence signal at time zero (t=0). This parameter is designated Upslope. The IC50 value is calculated as the concentration at which 50% of the Upslope is inhibited.

T1 sequence (Q96D31 whole entry): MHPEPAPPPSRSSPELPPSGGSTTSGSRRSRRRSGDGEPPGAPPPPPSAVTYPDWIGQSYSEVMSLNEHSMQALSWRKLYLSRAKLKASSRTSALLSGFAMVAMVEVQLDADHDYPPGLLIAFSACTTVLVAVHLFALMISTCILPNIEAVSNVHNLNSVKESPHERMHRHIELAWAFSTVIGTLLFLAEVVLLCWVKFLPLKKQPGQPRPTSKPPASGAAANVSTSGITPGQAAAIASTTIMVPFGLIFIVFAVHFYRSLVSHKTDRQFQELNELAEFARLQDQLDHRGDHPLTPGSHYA

Row | pIC50 ([1]; Table iii) | pIC50 ([2]; Table iii) | pIC50 ([1]; Table iv) | pIC50 ([2]; Table iv) | Orai1/STIM1 (IC50, μmol) ([1]; Table iii) | SMILES
1 | 5.92 to 6.22 | > 6.22 |  |  |  | Fc1cnccc1CNc1ccc(-n2nc(C(F)(F)F)cc2C(F)(F)F)cc1
2 | > 6.22 | > 6.22 |  |  |  | Cc1nn(C(F)F)cc1-c1ccc(NCc2c(F)cc(F)cc2F)cc1
3 |  |  | > 6.22 | > 6.22 |  | Cn1nc(C(F)(F)F)cc1-c1ccc(NC(=O)c2ccc(F)cc2F)cc1
4 | > 6.22 | > 6.22 |  |  |  | Cc1cccc(F)c1CNc1ccc(-c2cn(C(F)F)nc2C)cc1
5 | > 6.22 | > 6.22 |  |  |  | Cc1nn(C(F)F)cc1-c1ccc(NCc2c(F)cccc2F)cc1
6 |  |  | 5.92 to 6.22 | > 6.22 |  | Cc1nc(C(F)(F)F)cn1-c1ccc(NC(=O)c2ccccc2F)cc1
7 | 5.92 to 6.22 | > 6.22 |  |  |  | Fc1cncc(F)c1CNc1ccc(-n2nc(C(F)(F)F)cc2C(F)(F)F)cc1
8 | > 6.22 | > 6.22 |  |  |  | Cn1nc(C(F)(F)F)cc1-c1ccc(NCc2c(F)ccc(F)c2F)cc1
9 | > 6.22 | > 6.22 |  |  |  | CCn1nc(C(F)(F)F)cc1-c1ccc(NCc2ccccc2F)cc1
10 | > 6.22 | > 6.22 |  |  |  | Cc1nn(C(F)F)cc1-c1ccc(NCc2c(F)cc(F)cc2F)cc1F
11 | > 6.22 | > 6.22 |  |  |  | Cc1nc(C(F)(F)F)cn1-c1ccc(NCc2c(F)cccc2F)cc1
12 | > 6.22 | > 6.22 |  |  |  | Cc1ccccc1CNc1ccc(-c2cc(C(F)(F)F)nn2C)c(F)c1
13 | < 5.92 | > 6.22 |  |  |  | Cc1cc(F)ccc1CNc1ccc(-n2cc(C(F)(F)F)nc2C)c(F)c1
14 | > 6.22 | > 6.22 |  |  |  | Cc1nc(C(F)(F)F)cn1-c1ccc(NCc2c(F)cc(F)cc2F)cc1
15 |  |  | > 6.22 | > 6.22 |  | Cc1sc(C(F)(F)F)nc1-c1ccc(NC(=O)c2c(F)cc(F)cc2F)cc1
16 |  |  | > 6.22 | > 6.22 |  | Cn1nc(C(F)(F)F)cc1-c1ccc(NC(=O)c2ccc(F)cc2F)cc1F
17 |  |  | 5.92 to 6.22 | > 6.22 |  | Cc1cc(C(F)(F)F)nn1-c1ccc(NC(=O)c2c(F)cccc2F)cc1

Row | pIC50 ([1]; Table iii) | pIC50 ([2]; Table iii) | pIC50 ([1]; Table iv) | pIC50 ([2]; Table iv) | Orai1/STIM1 (IC50, μmol) ([1]; Table iii) | SMILES
18 |  |  | > 6.22 | > 6.22 |  | Cn1nc(C(F)(F)F)cc1-c1c(F)cc(NC(=O)c2ccc(F)cc2F)cc1F
19 | > 6.22 | > 6.22 |  |  |  | Cc1nn(C(F)F)cc1-c1ccc(NCc2c(F)cccc2F)cc1F
20 | 5.92 to 6.22 | > 6.22 |  |  |  | Cc1ccccc1CNc1ccc(-c2cn(C(F)F)nc2C)c(F)c1
21 |  |  | > 6.22 | 5.92 to 6.22 |  | Cc1nn(C(F)F)cc1-c1ccc(NC(=O)c2ccccc2F)cc1F
22 | > 6.22 | > 6.22 |  |  |  | Cc1nc(C(F)(F)F)cn1-c1ccc(NCc2c(F)cncc2F)cc1F
23 |  |  | 5.92 to 6.22 | > 6.22 |  | Cn1nc(C(F)(F)F)cc1-c1c(F)cc(NC(=O)c2c(F)cncc2F)cc1F
24 |  |  | > 6.22 | > 6.22 |  | CCn1nc(C(F)(F)F)cc1-c1ccc(NC(=O)c2c(F)cccc2F)cc1F
25 |  |  | 5.92 to 6.22 | > 6.22 |  | Cc1cc2c(cc1-c1ccc(NC(=O)c3cncc(F)c3)cc1)OC(F)(F)O2
26 | 5.92 to 6.22 | > 6.22 |  |  |  | Cc1cc2c(cc1-c1ccc(NCc3snnc3F)cc1)OC(F)(F)O2
27 |  |  | < 5.92 | > 6.22 |  | Cc1nc(C(F)(F)F)cn1-c1ccc(NC(=O)c2c(F)cccc2F)cc1
28 |  |  | > 6.22 | > 6.22 |  | Cn1nc(C(F)(F)F)cc1-c1ccc(NC(=O)c2ccccc2F)cc1
29 |  |  | 5.92 to 6.22 | > 6.22 |  | Cc1cc2c(cc1-c1ccc(NC(=O)c3snnc3C)cc1)OC(F)(F)O2
30 |  |  | < 5.92 | > 6.22 |  | Cc1cc2c(cc1-c1ccc(NC(=O)c3c(F)cccc3F)cc1)OC(F)(F)O2
31 |  |  | > 6.22 | > 6.22 |  | Cc1cccc(F)c1C(=O)Nc1ccc(-c2cn(C(F)F)nc2C)c(F)c1
32 |  | > 6.22 |  |  | Max inh. <50% | Cn1nc(C(F)(F)F)cc1-c1c(F)cc(NCc2ccccc2F)cc1F
33 |  |  | > 6.22 | > 6.22 |  | Cn1nc(C(F)(F)F)cc1-c1ccc(NC(=O)c2ccccc2F)cc1F
34 |  |  | > 6.22 | > 6.22 |  | Cn1nc(C(F)(F)F)cc1-c1c(F)cc(NC(=O)c2ccccc2F)cc1F

— patent US20140256771A1, “COMPOUNDS THAT MODULATE INTRACELLULAR CALCIUM” (CalciMedica, Inc., priority 2011, published 2014)
